Results reported in patent US20180169021A1, “RANOLAZINE MULTIPLE COMPRESSED TABLETS” (INTERQUIM, S.A., priority 2015, published 2018).
Converted amounts (≈) assume the structure as drawn. Like-named read-outs stand apart in the source and are kept apart here.

Assays:
[1] = cited from earlier work
[2] = Dissolution in time of 500 mg ranolazine compressed into tablets, 900 mL aqueous media, paddle 100 rpm (FIG. 1); type: physicochemical; conditions: 100% ranolazine tablet
From the text: As shown in the previous table, ranolazine is much more soluble at acidic pH than in neutral or basic pH.

[3] = quoted from WO0166093 A2; cited from earlier work

For COc1ccccc1OCC(O)CN1CCN(CC(=O)Nc2c(C)cccc2C)CC1 (centres unmarked) [Ranolazine, N-(2,6-dimethylphenyl)-2-(4-(2-hydroxy-3-(2-methoxyphenoxy)propyl)piperazin-1-yl)acetamide], the Solubility ([1]; Solution pH 4.81) is given as 161 mg/mL (≈ 377 mM), the “USP Solubility Class” value ([1]; Solution pH 4.81) is given as “Freely Soluble” and the Solubility ([1]; Solution pH 4.89) is given as 73.8 mg/mL (≈ 173 mM). For the same compound, the “USP Solubility Class” value ([1]; Solution pH 4.89) was “Soluble”, the Solubility ([1]; Solution pH 4.90) was 76.4 mg/mL (≈ 179 mM) and the “USP Solubility Class” value ([1]; Solution pH 4.90) was “Soluble”. The Solubility ([1]; Solution pH 5.04) was 49.4 mg/mL (≈ 116 mM), the “USP Solubility Class” value ([1]; Solution pH 5.04) was “Soluble” and the Solubility ([1]; Solution pH 5.35) was 16.7 mg/mL (≈ 39.1 mM). For the same compound, the “USP Solubility Class” value ([1]; Solution pH 5.35) was “Sparingly Soluble”, the Solubility ([1]; Solution pH 5.82) was 5.48 mg/mL (≈ 12.8 mM) and the “USP Solubility Class” value ([1]; Solution pH 5.82) was “Slightly soluble”. The Solubility ([1]; Solution pH 6.46) was 1.63 mg/mL (≈ 3.81 mM), the “USP Solubility Class” value ([1]; Solution pH 6.46) was “Slightly soluble” and the Solubility ([1]; Solution pH 6.73) was 0.83 mg/mL (≈ 1.94 mM). For the same compound, the “USP Solubility Class” value ([1]; Solution pH 6.73) was “Very slightly soluble”, the Solubility ([1]; Solution pH 7.08) was 0.39 mg/mL (≈ 0.912 mM) and the “USP Solubility Class” value ([1]; Solution pH 7.08) was “Very slightly soluble”. The Solubility ([1]; Solution pH 7.59*) was 0.24 mg/mL (≈ 0.561 mM), the “USP Solubility Class” value ([1]; Solution pH 7.59*) was “Very slightly soluble” and the Solubility ([1]; Solution pH 7.79) was 0.17 mg/mL (≈ 0.398 mM). The “USP Solubility Class” value ([1]; Solution pH 7.79) was “Very slightly soluble”, the Solubility ([1]; Solution pH 12.66) was 0.18 mg/mL (≈ 0.421 mM) and the “USP Solubility Class” value ([1]; Solution pH 12.66) was “Very slightly soluble”. For the same compound, the Solubility ([1]; low pH that occurs in the stomach, quoted from WO0166093 A2) was “relatively high”, the “Time until all the ranolazine is dissolved” value ([2]; pH 1 (0.1 M HCl)) was “less than 30 minutes” and the Ranolazine dissolved ([2]; pH 6.8, 30 minutes) was “around 63%”. For the same compound, the Extent of dissolution ([2]; pH 6.8, 12 hours) was “not yet fully dissolved” and the Plasma half-life [3] was “relatively short”.
